Assay results: patent US20240269115A1, “PYRAZOLONE COMPOUNDS FOR USE IN DEGENERATIVE RETINAL DISEASES” (FLONEXT S.R.L., priority 2021, published 2024)

What was measured:
[1] = system: NalO3-induced damage of the RPE layer in macular degeneration model mice; assay: Retinal pigment epithelium damage by RPE65 immunofluorescence in the NalO3 mouse model of macular degeneration; assay type: in vivo, C57BL/6J male mice; conditions: eye drops 5 μl 3 times a day, days 1-3 (dipyrone 16.65 μg, propyphenazone 11.5 μg, indomethacin 17.85 μg); NalO3 20 mg/kg retro-orbital vein; retina collected day 4; mean±SEM
Procedure: (§1) To create a valid model of macular degeneration, systemic administration (via the retro-orbital vein) of NalO3 was carried out in C57BL/6J male mice aged 5-8 weeks and weighing 22-25 g supplied by the Charles River company (Milan, Italy). A total of 30 mice were used to carry out the experiments described below. The animals were kept in a temperature and humidity-controlled environment (12-hour dark/light cycle, free access to food and water).
(§2) As described above, the mouse model obtained by systemic administration (via the retro-orbital vein) of NalO3 is a model of macular degeneration. In fact, 3 days after administration, NalO3 induced in mice persistent retinal damage with characteristics similar to those observed in age-related macular degeneration in humans.
(§3) In order to evaluate the efficacy of dipyrone and propyphenazone, preferred compounds belonging to the pyrazolone class, in reducing and treating the retinal damage typical of macular degeneration, a model of macular degeneration was developed with an experiment on 5 groups of mice. The mice were administered dipyrone, propyphenazone, indomethacin or their vehicle, locally via eye drops.
(§4) In particular, a group of 6 mice (used as a control) were given vehicle (V1) (NaCl, 0.9%) of NalO3 (1 ml/kg) 60 minutes before the injection into the retro-orbital vein and subsequently given eye drops (5 μl) containing the vehicle (V2) (4% DMSO, 4% Tween 80 in 0.9% NaCl) of the drugs 3 times a day by instillation. […]
Damage to the RPE (retinal pigmented epithelium) was assessed by direct immunofluorescence. […]
The staining intensity of the RPE layer was quantified using a primary antibody (RPE65, #ab13826, mouse monoclonal, 1:100, Abcam, Cambridge, UK) to which a second antibody (fluorophore-labelled, Alexa Fluor 488, #A28175, Thermo Fisher Scientific) binds in the 5 groups of mice treated with V2/V1, V2/NalO3, dipyrone/NalO3, propyphenazone/NalO and indomethacin/NalO3. […]

[2] = system: NalO3-induced increase in retinal 4-hydroxynonenal (4-HNE) in macular degeneration model mice; assay: Retinal oxidative stress by 4-HNE immunofluorescence in the NalO3 mouse model of macular degeneration; assay type: in vivo, C57BL/6J male mice; conditions: eye drops 5 μl 3 times a day, days 1-3 (dipyrone 16.65 μg, propyphenazone 11.5 μg, indomethacin 17.85 μg); NalO3 20 mg/kg retro-orbital vein; retina collected day 4; mean±SEM
Procedure: as §1, §2, §3, §4
The level of oxidative stress was also assessed throughout the thickness of the retina by measuring the immunofluorescence intensity for the reactive carbonyl species, 4-hydroxynonenal (4-HNE), a final indicator of oxidative stress.
Levels of 4-HNE were quantified using a primary antibody (#ab48506, monoclonal mouse [HNEJ-2], 1:40, Abcam, Cambridge, UK) to which a second antibody (fluorophore-labelled, Alexa Fluor 594, #A A32742, Thermo Fisher Scientific) binds in the 5 groups of mice treated with V2/V1, V2/NalO3, dipyrone/NalO3, propyphenazone/NalO3 and indomethacin/NalO3. […]

## Cc1c(C(C)C)c(=O)n(-c2ccccc2)n1C [propyphenazone, Propyphenazone]
[1]
  reduction of the damage induced by NalO3 on the RPE layer (RPE65 staining intensity) compared to V2: 99.2±23.0%
[2]
  reduction in retinal 4-HNE levels (immunofluorescence) vs. V2: 81.3±7.0%

## COc1ccc2c(c1)c(CC(=O)O)c(C)n2C(=O)c1ccc(Cl)cc1 [indomethacin, Indomethacin]
[1]
  reduction of the damage induced by NalO3 on the RPE layer (RPE65 staining intensity) compared to V2: 5.7±14.9%
[2]
  reduction in retinal 4-HNE levels (immunofluorescence) vs. V2: 17.5±10.5%

## Cc1c(N(C)CS(=O)(=O)[O-])c(=O)n(-c2ccccc2)n1C.[Na+] [dipyrone, Dipyrone]
[1]
  reduction of the damage induced by NalO3 on the RPE layer (RPE65 staining intensity) compared to V2: 87.8±7.8%
[2]
  reduction in retinal 4-HNE levels (immunofluorescence) vs. V2: 69.7±11.8%
